Assay results published in patent US20090068687A1, “Screening platform for discovery of immunomodulatory activities in traditional medicine” (The Hong Kong Polytechnic University, priority 2004, published 2009).

What was measured:
Assay type in all cases: cell-based, rat
[1] = test system: IFN-γ; assay: ELISA of IFN-γ secretion from splenocytes with and without Rg1
Description: (§1) Rats were placed under deep ether anesthesia and exsanguinated via the abdominal aorta. Spleen was removed by aseptic techniques before washed twice in 10 mL of RPMI-1640 (Gibco, U.S.A.) medium containing 1000 U/mL penicillin-streptomycin (PS) (Gibco, U.S.A.). Spleens were then cut into small pieces before being sucked up and down with a plunger in a plastic syringe. Single cell suspension was prepared and placed into the same medium containing 1000 U/mL PS, and 5% acid citric dextrose. Splenocytes were then isolated by gradient centrifugation by layering the single cell suspension onto Ficoll-Paque Plus gradient (Amersham Bioscience, H.K. Ltd.) and spun at 400 g for 35 minutes at room temperature. The splenocytes-containing fraction was collected. Erythrocytes were lyzed by adding four volumes of ice-cold ammonium chloride solution (pH 7.4) at room temperature for 5 minutes and splenocytes were washed twice in plain medium. […]
(§2) IFN-γ as well as TNF-α ELISA assays were performed using the OptiEIATM rat IFN-γ and TNF-α kits (Pharmigen, U.S.A.). […] After the addition of avidin-HRP conjugate, color was developed by the addition of 2,2-Azin-bis-3-thylbenzthiazoline-6-sulfonic acid and the color change was monitored at an absorbance of 405 nm with a Microplate Reader (Bio-Rad Laboratories, U.S.A.) The amount of INF-γ and TNF-α were calculated by comparing with the standard.

[2] = test system: iNOS; assay: Western blotting of iNOS expression in splenocyte lysate after Rg1 stimulation; settings: 5 μg/ml Rg1, splenocyte lysate
Description: as §1, with “collected.” for “collected. Erythrocytes were lyzed by adding four volumes of ice-cold ammonium chloride solution (pH 7.4) at room temperature for 5 minutes and splenocytes were washed twice in plain medium.”
(§3) Supernatants of splenocytes cell culture with and without Rg1 incubation were harvested at different time points and used for the detection of TNF-α and IFN-γ. […] The protein content of the supernatant/lysate was determined by the Bradford method (Bio-Rad Laboratory, U.S.A.). For each analysis, 350 μg of protein was analyzed by a 12.5% reducing SDS-PAGE gel ran at a constant voltage (150V) for 1 hour. […] Positive binding was detected using the SuperSignal West Pico Chemiluminescent Kit (Pierce, U.S.A.) and the exposed X-ray films (Kodak) were scanned with a Molecular Dynamics Densitometer (Bio-Rad Laboratories, U.S.A.).

[3] = test system: TNF-α; assay: Western blotting of TNF-α secretion in culture medium of Rg1-stimulated splenocytes; settings: 5 μg/ml Rg1, culture medium
Description: as §1, with “collected.” for “collected. Erythrocytes were lyzed by adding four volumes of ice-cold ammonium chloride solution (pH 7.4) at room temperature for 5 minutes and splenocytes were washed twice in plain medium.”
as §3

[4] = test system: TNF-α; assay: ELISA of TNF-α secretion from splenocytes with and without Rg1
Description: as §1, §2

[5] = test system: splenocytes; assay: 2-DE (Two-in-one gel) / MALDI-TOF MS analysis of differential protein expression in splenocyte lysates
Description: Rats were placed under deep ether anesthesia and exsanguinated via the abdominal aorta. Spleen was removed by aseptic techniques before washed twice in 10 mL of RPMI-1640 (Gibco, U.S.A.) medium containing 1000 U/mL penicillin-streptomycin (PS) (Gibco, U.S.A.). Spleens were then cut into small pieces before being sucked up and down with a plunger in a plastic syringe. Single cell suspension was prepared and placed into the same medium containing 1000 U/mL PS, and 5% acid citric dextrose. Splenocytes were then isolated by gradient centrifugation by layering the single cell suspension onto Ficoll-Paque Plus gradient (Amersham Bioscience, H.K. Ltd.) and spun at 400 g for 35 minutes at room temperature. The splenocytes-containing fraction was collected. Erythrocytes were lyzed by adding four volumes of ice-cold ammonium chloride solution (pH 7.4) at room temperature for 5 minutes and splenocytes were washed twice in plain medium. Lymphocytes were stained with Wright-Giema stain before examination under light microscope. Cell viability and number were examined after trypan blue staining under the light microscope. Splenocytes (1×10^6) were cultured in complete RPMI-1640 medium containing 1000 U/mL PS, supplemented with 2 g/L sodium carbonate. Cells were re-suspended in the same medium with 10% FCS (Gibco, U.S.A.) and subjected to various treatments after 24 hours incubation.
Rg1 (dosage of 5 μg/mL) was added to splenocytes in PBS buffer in 6-well flat-bottomed plates (Nunc Maxisorp, U.S.A.) in a 5% CO2 incubator at 37° C. Samples of conditioned media from the incubation mixture were harvested at varying time points (from 12-72 hours). These samples were kept at −80° C. until use. No sample was kept for more than 2 months. Besides Western Blotting, global protein expression in samples of Rg1 treated splenocytes (at 12 hours and 24 hours intervals) were also performed using 2-DE analysis. Cells incubated with PBS for 24 hours were used as control.
Splenocytes on culture dishes were rinsed once with RPMI-1640 after incubation with or without Rg1. Subsequently, […] trypsin containing 0.2 g/L EDTA was added and allowed to incubate for 3 min. Cells were then collected by centrifugation at 1,000 g for 5 minutes and washed with PBS (pH 7.2) twice. Splenocytes were then lysed with a minimal amount of lysis buffer (usually 200 μl) containing 4% Triton X-100, 9 M urea, and 1 mM PMSF for 10 minutes on ice. The supernatant was collected by centrifugation at 3,000 g for 10 minutes and protein contents were measured by a modified Bradford method using a protein assay kit by Bio-Rad Laboratories, U.S.A. Cell lysates from different animals with the same treatment were pooled together at a protein ratio of 1:1 and was used for 2-DE analysis. 120 μg of splenocytes lysate [in a buffer containing 9M Urea, 2% w/v Triton X-100, 0.5% w/v DDT (Sigma, U.S.A.), 0.4% v/v IPG buffer 4-7 (Amersham Pharmacia Biotech, Uppsala, Sweden) and trace amount of bromophenol blue to a final volume of 300 μl] was used for in-gel sample rehydration.
Samples were applied onto IPG strips pH 4-7 (3×170 mm, Bio-Rad Laboratories, U.S.A.). Rehydration and subsequent isoelectric focusing was performed using either a Protean IEF Cell (Bio-Rad Laboratories, U.S.A.) or an IPGphor (Amersham Biosciences, U.S.A.). Rehydration was performed at room temperature for 16 hour at 50 V in the IPG strip holder covered with low viscosity paraffin oil. Isoelectric focusing was then performed using 500 V (1 hour), 1000 V (1 hour), 4000 V (2 hour) and 8000 V (2 hour) sequentially. Strips were then equilibrated in […] Tris-HCl equilibration buffer, pH 6.8, containing 1% (w/v) DTT (Sigma, U.S.A.), 9M urea, 30% v/v glycerol, 2% w/v SDS and a trace amount of bromophenol blue for 10 minutes. […]

[6] = test system: IFN-γ; assay: Western blotting of IFN-γ secretion in culture medium of Rg1-stimulated splenocytes; settings: 5 μg/ml Rg1, culture medium, 24 hour
Description: as §1, with “collected.” for “collected. Erythrocytes were lyzed by adding four volumes of ice-cold ammonium chloride solution (pH 7.4) at room temperature for 5 minutes and splenocytes were washed twice in plain medium.”
as §3

[7] = 5 μg/mL Rg1, ELISA time course 12-72 hours
[8] = 5 μg/mL Rg1, ELISA, versus splenocytes without Rg1
[9] = Rg1 24 hours versus PBS control
[10] = Rg1 treated versus normal sample, Two-in-one gels

## CC(C)=CCC[C@](C)(O[C@@H]1O[C@H](CO)[C@@H](O)[C@H](O)[C@H]1O)[C@H]1CC[C@]2(C)[C@@H]1[C@H](O)C[C@@H]1[C@@]3(C)CC[C@H](O)C(C)(C)[C@@H]3[C@@H](O[C@@H]3O[C@H](CO)[C@@H](O)[C@H](O)[C@H]3O)C[C@]12C [Rg1]
[1]; [7]
  incubation time at which IFN-γ level reached a maximum: 24 h
[1]; [8]
  increase in quantity of IFN-γ after Rg1 induction: more than 1000 fold
[2]; 12 hour
  iNOS detection by Western blotting: detected
[2]; 24 hour
  iNOS detection by Western blotting: detected
[3]; 24 hour
  TNF-α detection by Western blotting: detected
[3]; 48 hour
  TNF-α detection by Western blotting: detected
[4]; [7]
  incubation time at which TNF-α level reached a maximum: 24 h
[4]; [8]
  increase in quantity of TNF-α after Rg1 induction: more than 1000 fold
[5]; 24 hours incubation with Rg1, about 102 spots in normal sample
  number of protein spots detected on the gel half run with the Rg1 treated sample: 122
[5]; [9]
  Regulation of Alpha-mannosidase II (spot 6): Up-
  Regulation of Cytochrome C oxidase polypeptide IV precursor (spot 2): Up-
  Regulation of DNA polymerase beta (spot 3): Up-
  Regulation of Guanine nucleotide-binding protein G (spot 4): Up-
  Regulation of Homeotic protein LH-2 (spot 1): Up-
  Regulation of T-cell surface glycoprotein CD5 precursor (spot 5): Up-
[5]; [10]
  number of protein spots down-regulated: 38
  number of proteins up-regulated: 87
  number of spots without significant apparent changes: 38
[6]
  IFN-γ detection by Western blotting: detected
